Data as given in patent publication US11541027B2 (DelMar Pharmaceuticals, Inc., priority 2014, dated 2023).

Columns and labels:
[1] = Stability of reconstituted dianhydrogalactitol stock solution; type: physicochemical; settings: 8 mg/mL in 0.9% sodium chloride for injection
Experimental: For administration, 5 mL of 0.9% sodium chloride for injection, USP (saline) was added to yield a DAG solution with a concentration of 8 mg/mL.

OVCA-433 = assay: 5-day MTT cytotoxicity, wild-type p53 ovarian tumor panel; type: cell-based, human; settings: OVCA-433, wt-p53, cisplatin-resistant, N = 3, read-out: DAG IC50 (μM) Mean
Excerpt: (§1) The ovarian tumor panel lines are as follows: • is A2780; ▪ is 2780-CP16; ▴ is OVCAR-10; ▾ is HEY; and ♦ is OVCA-433. Dose-response curves were undertaken using a 5-day MTT assay to determine cell viability. The A2780 represents a cisplatin-sensitive model, whereas the other four cell lines are cisplatin-resistant. The cell line 2780-CP16 was derived for cisplatin resistance from A2780. The properties of some of these cell lines are disclosed in G. S. Hagopian et al., “Expression of p53 in Cisplatin-Resistant Ovarian Cell Lines: Modulation with the Novel Platinum Analog (1R,2R-Diaminocyclohexane)(trans-diacetato)(dichloro)-platinum(IV),” Clin. Cancer Res. 5: 655-663 (1999), and in Z. H. Siddik et al., “Independent Pathways of p53 Induction by Cisplatin and X-Rays in a Cisplatin-Resistant Cell Line,” Cancer Res. 58: 698-703 (1998), both incorporated herein by this reference.
(§2) The data of FIG. 7 are shown in Table 8 in terms of the IC50 of dianhdrogalactitol in the wild-type p53 human ovarian tumor panel.

Ovcar-10 = assay: as above; type: cell-based, human; settings: Ovcar-10, wt-p53, cisplatin-resistant, N = 3, read-out: DAG IC50 (μM) Mean
Excerpt: as §1, §2

A2780 = assay: as above; type: cell-based, human; settings: A2780, wt-p53, cisplatin-sensitive, N = 3, read-out: DAG IC50 (μM) Mean
Excerpt: as §1, §2

Hey = assay: as above; type: cell-based, human; settings: wt-p53, cisplatin-resistant, N = 3, read-out: DAG IC50 (μM) Mean
Excerpt: as §1, §2

2780-CP = assay: as above; type: cell-based, human; settings: wt-p53, cisplatin-resistant, N = 3, read-out: DAG IC50 (μM) Mean
Excerpt: as §1, §2

H226 = assay: Cytotoxicity in NSCLC tumor models; type: cell-based, human; settings: H226, p53 wt; N = 3
Excerpt: (§3) The cell lines include cell lines with wild-type p53, cell lines with mutant p53, and cell lines in which p53 has been knocked out (“null”). The properties of these cell lines are described in F. Bunz et al., “Requirement for p53 and p21 to Sustain G2 Arrest After DNA Damage,” Science 282: 1497-1501 (1998), incorporated herein by this reference.

A549 = assay: Cytotoxicity in NSCLC tumor models; type: cell-based, human; settings: A549, p53 wt; N = 3
Excerpt: as §3

H460 = assay: Cytotoxicity in NSCLC tumor models; type: cell-based, human; settings: H460, p53 wt; N = 3; listed as DAG
Excerpt: as §3

H157 = assay: Cytotoxicity in NSCLC tumor models; type: cell-based, human; settings: H157, p53 mu; N = 3
Excerpt: as §3

H838 = assay: Cytotoxicity in NSCLC tumor models; type: cell-based, human; settings: H838, p53 wt; N = 3
Excerpt: as §3

H1975 = assay: Cytotoxicity in NSCLC tumor models; type: cell-based, human; settings: H1975, p53 mu; N = 3
Excerpt: as §3

H1299 = assay: Cytotoxicity in NSCLC tumor models; type: cell-based, human; settings: H1299, p53 null; N = 3
Excerpt: as §3

H2122 = assay: Cytotoxicity in NSCLC tumor models; type: cell-based, human; settings: H2122, p53 mu; N = 3
Excerpt: as §3

SkLU1 = assay: Cytotoxicity in NSCLC tumor models; type: cell-based, human; settings: SkLU1, p53 mu; N = 3
Excerpt: as §3

RIF-1 cell-line = assay: Standard syngeneic mouse fibrosarcoma model, tumor growth delay; type: in vivo; settings: 10 mg/kg, single IP injection, RIF-1 in C3H mice; for Tumor Delay: vs untreated
[2] = test system: NSCLC cell lines other than H460; assay: Cytotoxicity in NSCLC tumor models, range over the cell lines other than H460; type: cell-based, human; settings: NSCLC cell lines other than H460, single agents
[3] = test system: H1975 (TKI-resistant) human lung adenocarcinoma xenograft tumors; assay: H1975 NSCLC xenograft tumor model in female Rag2 mice
Experimental: Rag2 mice bearing subcutaneous human lung adenocarcinoma xenograft tumors of either TKI-resistant (H1975) or TKI-sensitive (A549) origin were treated.
Two human NSCLC cell lines, A549 (TKI-sensitive) and H1975 (TKI-resistant), were used as xenograft tumor models in female Rag2 mice. The mice were 6 to 8 weeks of age and weighed 18-23 grams. 10 mice were used per group.
Rag2 mice bearing subcutaneous human lung adenocarcinoma xenograft tumors of either TKI-sensitive (A549) or TKI-resistant (H1975) origin were treated. […] Saline was used as control treatment. Disease progression was evaluated by tumor volume, clinical observations and body weight measurements. Blood samples were analyzed for CBC/differential analyses to assess myelosuppression or other changes in blood chemistry.
Cell number for inoculation was 5×10^6 cells for A549 cells in an injection volume of 50 μL per animal. For H1975 cells, cell number for inoculation was 2×10^6 cells in an injection volume of 50 μL per animal.
Treatment was initiated at average tumor volume of 100-150 mm^3.
Tumor growth delay (TGD) was calculated according to Equation (2): TGD=DTtx−DTcontrol (2).
For these calculations, TV is tumor volume, tx is treatment, int is initial, DT is doubling time for mean tumor volume from 200 mm^3 to 400 mm^3 for A549 or from 300 mm^3 to 600 mm^3 for H1975. MTV is mean tumor volume in mm^3 and TCR is tumor control ratio.
Disease progression was evaluated by tumor volume, clinical observations and body weight measurements.

[4] = 4 mg/kg i.p., stopped after 6 doses

dianhydrogalactitol
time for which the stock solution was stable ([1]; 4° C.): 24 h | time for which the stock solution was stable ([1]; room temperature): 4 h | IC50 (OVCA-433): 2.3 µM | IC50 (Ovcar-10): 3.6 µM | IC50 (A2780): 0.54 µM | IC50 (Hey): 2.1 µM | IC50 (2780-CP): 2.2 µM | IC50 (H226): 6.11 µM | IC50 (A549): 1.75 µM | IC50 (H460): 0.49 µM | IC50 (H157): 4.48 µM | IC50 (H838): 4.52 µM | IC50 (H1975): 0.9 µM | IC50 (H1299): 2.37 µM | IC50 (H2122): 2.84 µM | IC50 (SkLU1): 2.72 µM | Days to 4 × Median Tumor Size (RIF-1 cell-line): 11.45 days | Tumor Delay (RIF-1 cell-line): 5.16 days | Tumor Delay (RIF-1 cell-line; listed as dianhydrogalactitol): 5.6 days | IC50 [2]: 900 to 6100 nM | MTV at Day 31 ([3]; 2 mg/kg i.p. M, W, F × 3): 396 mm^3 | Median survival ([3]; 2 mg/kg i.p. M, W, F × 3): 31 days | TCR at Day 31 ([3]; 2 mg/kg i.p. M, W, F × 3, tumor control ratio): 0.87 | MTV at Day 31 ([3]; 3 mg/kg i.p. M, W, F × 3): 383 mm^3 | Median survival ([3]; 3 mg/kg i.p. M, W, F × 3): 31 days | TCR at Day 31 ([3]; 3 mg/kg i.p. M, W, F × 3, tumor control ratio): 0.84 | body weight ([3]; 4 mg/kg i.p. (group 5), treatment stopped after 6 doses, mice then quickly recovered): significant body weight loss | MTV at Day 31 [3, 4]: 262 mm^3 | Median survival [3, 4]: 41 days | TCR at Day 31 ([3]; 4 mg/kg i.p., stopped after 6 doses, tumor control ratio): 0.57
